Laboratory results: paper PMC4363635 (PLoS ONE, 2015)
Ends that are not written are not given here. Peptide text beside a SMILES is read from it.

Key:
[1] = Stability in human plasma; format: in vitro ADME; conditions: human plasma in Krebs-Henseleit buffer
Experimental: (§1) In vitro chemical and metabolic stability was determined in cell medium and human plasma, respectively, using previously described procedures. In brief, 100 μg of peptide was incubated in Krebs-Henseleit buffer pH 7.4 with cell medium/plasma (500 μl) at 37°C while shaking. […] The enzyme reaction was further stopped by heating the solution at 95°C for 5 minutes. Next, the samples were centrifuged to precipitate the denatured proteins and the supernatant analyzed using UPLC-PDA. Appropriate placebo solutions were similarly prepared. Assuming first-order kinetics, the rate constant k was obtained from ln(Pt/Pt0) = -kt, from which the half-life was determined as t1/2 = ln(2)/k.

Caco-2 monolayer = assay: Caco-2 permeability assay; conditions: for intestinal permeability (in words): Caco-2 monolayer, 10 μM in HBSS
Stability in cell medium = format: in vitro ADME; conditions: cell medium in Krebs-Henseleit buffer, 37°C
Experimental: as §1

in vitro = conditions: human, Caco-2
MCF-7/AZ cells = assay: Collagen type I invasion assay; format: cell-based, human; conditions: 24 hours post-treatment; 1 μM, 100 nM and 10 nM; positive if collagen-invasion or cell-stretching at minimum 2 consecutive concentrations; n = 3
Experimental: Morphology changes of MCF-7/AZ cells were investigated using previously described methods [12]. […] Peptide solutions (S1 Table) (> 80% purity; all from GL Biochem, Shanghai, China) were prepared using ultrapure water and DMSO, obtaining final peptide concentrations of 1 μM (maximum 0.05% DMSO), 100 nM and 10 nM after 1:10 dilution using growth medium. […] To quantify these visual results, the number of cells containing invasive extensions were counted and compared to the total number of cells in the field.

[2] = human, pH 7.4, human plasma, Krebs-Henseleit buffer pH 7.4, 37°C, 0, 30 and 120 minutes, first-order kinetics, read-out: Plasma half-life (converted)
[3] = Krebs-Henseleit buffer pH 7.4 with cell medium, 0, 6 and 24 hours, first-order kinetics, read-out: Cell medium half-life (converted)
[4] = human, pH 7.4, footnote a, human plasma, 37°C, sampled up to 120 minutes, read-out: calculated half-life in plasma

Row | Compound | half-life [1, 2] | intestinal permeability (in words) (Caco-2 monolayer) | half-life (Stability in cell medium; [3]) | Papp A→B at 120 min, 10 μM (in vitro) | half-life [1, 4] | other results
1 | NC(=O)C[C@H](NC(=O)[C@H](Cc1c[nH]c2ccccc12)NC(=O)[C@@H](N)CC(N)=O)C(=O)O [EDF-analogue, NWN] (H-Asn-Trp-Asn-OH; N-terminus and C-terminus assumed) | 4.47 h | can pass the intestinal barrier | 42 h | 0.141 ×10⁻⁶ cm/s |  | efflux ratio change using the PepT1 substrate LY (Caco-2 monolayer; 10 μM peptide plus dipeptide LY (10 μM)): doubled; intestinal permeability (in words) (Caco-2 monolayer; listed as NWN): low intestinal permeability kinetics; absorption in humans (in vivo) corresponding to in vitro Papp values (Caco-2 monolayer; in vivo-in vitro correlation studies ref 15, 33): 5–10%; efflux ratio at 120 min, 10 μM (in vitro): 1.1
2 | ARNQT [PhrA] |  |  |  |  |  | tumour cell invasion through a type I collagen extracellular matrix (morphology scoring) (MCF-7/AZ cells): did not induce invasive characteristics
3 | EKMIG [PhrG, EKMIG] | > 13 h | does not show any absorption from the intestinal lumen |  | < 0.0069 ×10⁻⁶ cm/s | 13.2 h | half-life (Stability in cell medium; pH 7.4, Krebs-Henseleit buffer pH 7.4 with cell medium, 0, 6 and 24 hours, first-order kinetics, read-out: Cell medium half-life (converted)): 160 h; half-life (Stability in cell medium; pH 7.4, footnote a, sampled up to 24 hours, read-out: calculated half-life in cell medium): 158 h; Papp B→A at 120 min, 10 μM (in vitro): 0.0137 ×10⁻⁶ cm/s
4 | EMRKSNNNFFHFLRRI [CSP] |  |  | 45.8 h |  |  | half-life ([1]; human plasma, Krebs-Henseleit buffer pH 7.4, 37°C, 0, 30 and 120 minutes, first-order kinetics, read-out: Plasma half-life (converted)): 8.73 h
5 | NNWNN [EDF, NNWNN] | > 13 h | impermeable | 16.2 h |  | 13.2 h | Papp at 120 min, 10 μM (in vitro): < 0.0029 ×10⁻⁶ cm/s
